Experimental data taken from patent publication US20030157101A1, “Immunogenic ALK peptides” (priority 2001, published 2003).
Several values for one entry are separate records, joined by “and”; a condition that tells them apart may be missing. Identical values can stand only once. Entries after “also recorded” stand apart in the source; their conditions may differ.

Tests used:
[1] = target: HLA-A*0201/peptide complexes (Homo sapiens, UniProt P04439, D140Y/D185E/D98H/E176V/E277Q/G131W/G231S/I119V/I121R/I166T/I218V/L300P/L318F/N151K/N90K/P208A/P217A/Q86G/Q94H/R138H/R169H/T345S); assay: HLA-A*0201/peptide complex stability on T2 cells (DC50); format: binding; details: 100 μM peptide overnight, Brefeldin A, 37° C.
Procedure: To assess the HLA-A*0201/peptide complex stability, T2 cells (10^6/ml) were incubated overnight with 100 μM of each peptide in serum free RPMI 1640 supplemented with 100 ng/ml of human β2m at 37° C. Cells were then washed four times to remove free peptides, incubated for 1 hr with 10 μg/ml of Brefeldin A (Sigma-Aldrich, France) in order to block cell surface expression of newly synthesized HLA-A*0201 molecules, washed and incubated at 37° C. for 0, 2, 4, 6, or 8 hours. Subsequently, cells were stained with anti-HLA-A2.1 mAb BB7.2. For each time point, peptide induced HLA-A*0201 expression was calculated as: mean fluorescence value of peptide incubated T2 cells/mean fluorescence value T2 cells in the absence of the peptide.

[2] = tested on: HLA-A*0201 monochain transgenic (HHD) mice; assay: In vivo immunogenicity of ALK-derived peptides in HHD mice (51Cr-release on peptide-pulsed RMA-S/HHD cells); details: for R/T HHD mice (responder versus tested mice): 100 μg peptide s.c. in IFA, responder = specific lysis at least 15% above lysis of unloaded RMA-S/HDD; for % lysis of peptide-loaded RMA-S/HHD cells: E:T ratio 60:1, maximal lysis observed for each responder mouse
healthy donor PBLs = assay: Stimulation of ALK-specific CTLs from healthy donor PBLs; format: cell-based, human; details: three donors tested per peptide; lysis of peptide loaded T2 cells and NPM/ALK-positive lymphoma lines
Procedure: Blood was collected from HLA-A*0201 normal volunteer donors. PBMC were isolated from whole blood by Ficoll/Hypaque (Pharmacia, Uppsala, Sweden) density gradient centrifugation. Dendritic cells (DCs) were generated according to the protocol of Sallusto and Lanzavecchia (Sallusto F. et al., (1994) J Exp Med. 179: 1109-1118). Adherent monocyte-enriched peripheral blood mononuclear cells (PBMCs) were cultured in RPMI 1640 medium supplemented with 10% FCS, 20 ng/ml recombinant human interleukin (IL)-4 (R&D Systems, Minneapolis, Minn.) and 800 U/ml recombinant human granulocyte-macrophage colony-stimulating factor (GM-CSF) (Sandoz, Basel, Switzerland). On day 5 of culture, 10 ng/ml recombinant human tumor necrosis factor (TNF)-α (Knoll, Ludwigshafen, Germany) was added to the medium. After 40 hrs, the surface phenotype of monocyte-derived DCs was determined by single-color flow cytometry using the following mAbs: fluorescein-conjugated anti-CD1a ([…], Torino, Italy), anti-CD86 (CALTAG, Burlingame, Calif.), anti-CD83 (CALTAG, Burlingame, Calif.), anti-CD14 (Becton Dickinson) and rhodamine-conjugated anti-CD80 (Becton Dickinson). DCs were used to prime autologous PBL as follows. DCs were pulsed with 10 μM peptide for 2 hrs at 37° C., irradiated at 30 Gy and added to autologous PBLs at a ratio variable from 3:1 to 6:1 (PBL:DC). PBLs (36×10^6 total) were cultured at 1,5×10^6 cells/2ml of Culture Medium (CM: 50% RPMI 1640/50% X-VIVO (BioWhittaker, […], Mass.)) supplemented with 10% of heat-inactivated autologous plasma and 10 ng/ml IL-7 (R&D Systems, Minneapolis, Minn.) in the presence of autologous peptide-loaded DCs. At day 10-12 of culture, lymphocytes were restimulated with irradiated (30 Gy) autologous peptide-loaded monocytes in CM supplemented with 10% of heat-inactivated autologous plasma. After 24-48 hrs 10 IU/ml IL-2 (Chiron Co., Emeryville, Calif.) and 10 ng/ml IL-7 was added to the CM. Lymphocytes were then restimulated weekly in the same way. Starting from the forth round of stimulation, the specificity of the resulting T-cell lines was evaluated weekly in a cytolytic assay. When any specific activity was detected, CD8+ T-cells were isolated from the bulk culture by CD4+ cells negative depletion using mAb-coated beads (Dynal Dynabeads, Oxoid, Oslo, Norway) and the CTL lines were maintained in culture in RPMI 1640 containing 10% human AB serum supplemented with 50 U/ml IL-2 in the presence of irradiated (70 Gy) PBMCs as feeder. To prime ALK-specific lymphocytes, peptide-pulsed autologous dendritic cells (DCs) derived from peripheral blood mononuclear cells (PBMCs) were used after their in vitro maturation was confirmed by flow cytometric analysis of DC-specific cell surface markers. After a 3-4 week cycle of restimulation T lymphocyte specificity for ALK peptides was evaluated by determining antigen-restricted lysis of peptide loaded T2 cells (FIG. 1A) and NPM/ALK-positive lymphoma cell lines (FIG. 1B).

anti-ALK specific CTLs = assay: IFN-γ release assay with anti-ALK CTL lines (ELISA); format: cell-based, human; details: for IFN-γ released by p280-89 CTLs: p280-89 loaded autologous LCL; for Peptide concentration giving maximal IFN-γ production: titration on T2 cells, peptide-specific CTL lines
[3] = tested on: ALCL lymphoma cell lines SU-DHL1 and SUP-M2; assay: 51Cr release lysis of NPM/ALK-expressing ALCL cell lines by peptide-specific CTLs; format: cell-based, human; details: SU-DHL1 and SUP-M2, HLA-A2.1+
Procedure: (§1) Cytolytic activity was measured in a conventional 4-hrs ^51Cr release assay. A 10-fold excess of unlabeled K562 cells was added to offset NK activity. Target cells and E:T ratio are indicated in each figure. Specific lysis was determined according to the following formula: % specific lysis=cpm (sample−spontaneous)/cpm (total−spontaneous)×100. HLA-A*0201 blocking of T-cell activity (lysis and/or citokine release) was performed by preincubating target cells with the anti-HLA-A2 mAb CR11.351.
(§2) Thus, it can be concluded that ALK peptide induced CTLs efficiently lyse lymphoma targets, in a HLA-A2 restricted fashion, by relevant antigen-specific recognition.

[4] = tested on: FM3 (melanoma), HCT-116 (colon carcinoma), MCF-7 (breast carcinoma); assay: 51Cr release lysis of HLA-A2.1+/ALK- tumor lines by peptide-specific CTLs; format: cell-based, human; details: FM3, HCT-116, MCF-7
Procedure: as §1, §2

[5] = tested on: neuroblastoma cell line IMR-32; assay: 51Cr release lysis of HLA-A2.1+/ALK+ neuroblastoma cells by peptide-specific CTLs; format: cell-based, human; details: IMR-32, treated with INF-γ before use
Procedure: as §1, with “(sample-spontaneous)/cpm (total-spontaneous)×100.” for “(sample−spontaneous)/cpm (total−spontaneous)×100.”, “CR11.351. […] Because p280-89 and p376-85 peptides lie within the kinase domain, which is present in both native and translocated ALK, we used neuroblastoma cell lines as targets in cytotoxic experiments to further verify the natural processing of these two epitopes.” for “CR11.351.”

[6] = tested on: SK-N-SH (HLA-A2.1-/ALK+) and NB-5 (HLA-A2.1+/ALK-) cell lines; assay: 51Cr release lysis of control neuroblastoma lines by peptide-specific CTLs; format: cell-based, human
Procedure: as §1, with “(sample-spontaneous)/cpm (total-spontaneous)×100.” for “(sample−spontaneous)/cpm (total−spontaneous)×100.”, “CR11.351. […] Because p280-89 and p376-85 peptides lie within the kinase domain, which is present in both native and translocated ALK, we used neuroblastoma cell lines as targets in cytotoxic experiments to further verify the natural processing of these two epitopes.” for “CR11.351.”

[7] = tested on: ALCL lymphoma cell lines SU-DHL1 and SUP-M2; details: cited from earlier work
[8] = target: T1, HLA-A*0201 molecules on TAP-deficient T2 cells (human); assay: T2 cell HLA-A*0201 stabilisation, 100 uM peptide, flow cytometry with mAb BB7.2; mean of 4 experiments ± SEM
T1 construct: Peptide-receptive class I molecule on T2 cells; also called HLA-A2.1; HLA-A2
Procedure: T2 cells were incubated with 100 μM of peptide in serum-free RPMI 1640 supplemented with 5 μg/ml of human β₂m (Fluka, Buchs, Germany) for 18 hrs at 37° C.

[9] = target: T1, HLA-A*0201 molecules on TAP-deficient …; assay: T2 cells loaded with 100 uM peptide, Brefeldin A, flow cytometry with BB7.2 over 0-8 h
Excerpt: Subsequently, cells were stained with anti-HLA-A2.1 mAb BB7.2.

Molecule	DC50, half-life of disassociation of HLA-A*02.01/peptide complexes [1] [h]	R/T HHD mice (responder versus tested mice) [2]	% lysis of peptide-loaded RMA-S/HHD cells [2]	Donor response to peptide stimulation (specific CD8 reactivity) (healthy donor PBLs)	FI (Fluorescence Index) [8]	further results
SLTANMKEV (listed as Homo sapiens) [p621-29]	4 to 6	2/6	63% and 53%	No specific CD8 reactivity was detected	–	–
LAMLDLLHV (listed as Homo sapiens) [p281-89]	–	2/6	42% and 34%	No specific CD8 reactivity was detected	–	–
VLLWEIFSL (listed as Homo sapiens) [p377-85]	4 to 6	3/6	–	At least one out of the three donors tested were found to be responders	–	–
ALPIEYGPLV (listed as Homo sapiens) [p456-65]	2 to 4	2/6	–	At least one out of the three donors tested were found to be responders	–	–
AMLDLLHVA (listed as Homo sapiens) [p282-90]	4 to 6	3/6	80% and 56% and 50%	No specific CD8 reactivity was detected	–	–
SLAMLDLLHV (listed as Homo sapiens) [p280-89]	–	3/6	–	At least one out of the three donors tested were found to be responders	–	IFN-γ released by p280-89 CTLs (anti-ALK specific CTLs; donor three, 5 μM peptide): 750 IU/ml; IFN-γ released by p280-89 CTLs (anti-ALK specific CTLs; donor two, 5 μM peptide): 445 IU/ml; Peptide concentration giving maximal IFN-γ production (anti-ALK specific CTLs): 10 nM; Lysis of NPM/ALK-expressing ALCL cell lines by peptide-specific CTLs [3]: efficiently recognize and lyse; also recorded: killed these tumor lines; Lysis of HLA-A2.1+/ALK- tumor lines by peptide-specific CTLs [4]: no activity was detected; also recorded: No lysis above background level; Lysis of HLA-A2.1+/ALK+ neuroblastoma cells by peptide-specific CTLs [5]: recognize and kill; also recorded: efficiently lysed; Lysis of HLA-A2.1-/ALK+ or HLA-A2.1+/ALK- neuroblastoma lines by peptide-specific CTLs [6]: No lysis was detected; CTL cytotoxicity against NPM/ALK-positive lymphoma cell lines [7]: stimulate CTL cytotoxicity
GVLLWEIFSL (listed as Homo sapiens) [p376-85]	–	3/6	24% and 15%	At least one out of the three donors tested were found to be responders	–	IFN-γ released by p376-85 CTLs (anti-ALK specific CTLs; donor one, p376-85 pulsed T2 cells, 5 μM peptide): 674 IU/ml; Peptide concentration giving maximal IFN-γ production (anti-ALK specific CTLs): 100 nM; Lysis of NPM/ALK-expressing ALCL cell lines by peptide-specific CTLs [3]: efficiently recognize and lyse; also recorded: killed these tumor lines; Lysis of HLA-A2.1+/ALK- tumor lines by peptide-specific CTLs [4]: no activity was detected; also recorded: No lysis above background level; Lysis of HLA-A2.1+/ALK+ neuroblastoma cells by peptide-specific CTLs [5]: efficiently lysed; Lysis of HLA-A2.1+/ALK+ neuroblastoma cells by peptide-specific CTLs ([5]; listed as p375-86): recognize and kill; Lysis of HLA-A2.1-/ALK+ or HLA-A2.1+/ALK- neuroblastoma lines by peptide-specific CTLs [6]: No lysis was detected
VLLWEIFSL [ALK peptide p377-85 (VLLWEIFSL)]	–	–	–	–	3 ratio (sample / irrelevant-peptide control)	–
GVLLWEIFSL (also called p375-86) [ALK peptide p376-85 (GVLLWEIFSL)]	–	–	–	–	2.8 ratio (sample / irrelevant-peptide control)	DC50 (half-life of dissociation of HLA-A*0201/peptide complexes) [9]: 6 hs (hours)
LAMLDLLHV [ALK peptide p281-89 (LAMLDLLHV)]	–	–	–	–	3.5 ratio (sample / irrelevant-peptide control)	DC50 (half-life of dissociation of HLA-A*0201/peptide complexes) [9]: 2 hs (hours)
SLAMLDLLHV (Lies within the ALK kinase domain) [ALK peptide p280-89 (SLAMLDLLHV)]	–	–	–	–	5.6 ratio (sample / irrelevant-peptide control)	DC50 (half-life of dissociation of HLA-A*0201/peptide complexes) [9]: 4 hs (hours)
ALPIEYGPLV (Downstream of the kinase domain) [ALK peptide p456-65 (ALPIEYGPLV)]	–	–	–	–	4.2 ratio (sample / irrelevant-peptide control)	–
AMLDLLHVA [ALK peptide p282-90 (AMLDLLHVA)]	–	–	–	–	5.4 ratio (sample / irrelevant-peptide control)	–
